The source of these data is patent publication US20170157155A1, “METHOD OF TREATMENT OF NASOPHARYNGEAL CANCER” (Millennium Pharmaceuticals, Inc., priority 2012, published 2017).

In series [1] the test system is relapsed or refractory mantle cell lymphoma. As to conditions: international multi-center Phase II study; cited from earlier work.
Series [2] has as its system hematological and solid tumor xenograft models. The note with it: range of hematological and solid tumor xenograft models; cited from earlier work.
Another series deals with nasopharyngeal cancer. The series can be described thus: Clinical response of nasopharyngeal cancer patients given the compound of formula (III-A) IV twice weekly. Type of series: in vivo, human. The note with it: for clinical response: IV injection days 1, 4, 8 and 11 of a 21-day cycle. How it is done: (1) Tissue Microarray (obtained from US Biomax, Inc.) of primary nasopharyngeal cancer (n=35) (2) Tissue Microarray of metastatic nasopharyngeal cancer (obtained from US Biomax, Inc.) (n=15) (3) Tissue Microarray of other histologies of head and neck cancers (obtained from US Biomax, Inc.) (n=68) (4) Archival primary tumor biopsy samples of patients with head and neck squamous cell cancers (n=14). All samples were obtained under the appropriate informed consent. The patients were administered the compound of formula (III-A) on a twice-weekly schedule (days 1, 4, 8 and 11 of a 21-day cycle) as an IV injection. Of the primary tumor samples in (4), there were three patients with nasopharyngeal cancer.

For series [3] the following is noted: on exposure to aqueous solution or plasma; cited from earlier work.

In the case of `CC(C)C[C@H](NC(=O)[C@H](Cc1ccccc1)NC(=O)c1cnccn1)B(O)O` [bortezomib, N-2-pyrazinecarbonyl-L-phenylalanine-L-leucineboronic acid], the activity in patients result in series [1] is listed as “confirming the activity”.
In the case of `CC(C)C[C@H](NC(=O)CNC(=O)c1cc(Cl)ccc1Cl)B1OC(=O)C(CC(=O)O)(CC(=O)O)O1` [formula (III-A), 2,2′-{2-[(1R)-1-({[(2,5-dichlorobenzoyl)amino]acetyl}amino)-3-methylbutyl]-5-oxo-1,3,2-dioxaborolane-4,4-diyl}diacetic acid], the anti-tumor activity result in series [2] is “demonstrated anti-tumor activity”. The clinical response entry is given as “durable partial response” in the series on nasopharyngeal cancer (Patient 1, metastatic nasopharyngeal cancer of a squamous cell type, tumor NFκB p65 H-score 300); “disease progressed within 4 cycles” in the series with nasopharyngeal cancer (Patient 2, nasopharyngeal cancer, tumor NFκB p65 H-score 200); “progressive disease” in the series with nasopharyngeal cancer (Patient 3, nasopharyngeal cancer, tumor NFκB p65 H-score 160). Further, the Responder/Non-responder result in the series with nasopharyngeal cancer (Patient 1, H-score 300) was “Responder”; in the series on nasopharyngeal cancer (Patient 2, H-score 200), “Non-responder”; in the series with nasopharyngeal cancer (Patient 3, H-score 160), “Non-responder”. Further, in series [3], the “hydrolysis to the active form MLN2238” value is listed as “rapidly hydrolyzes”.
